In patent publication US4760065A, “Trifluoromethyl substituted tetracyclic quinazolin-ones having tranquilizing activity” (priority 1986, dated 1988):

Columns and labels:
[1] = molecular target: calf brain benzodiazepine receptors (3H-Flunitrazepam binding, calf brain cortex); assay: Flunitrazepam Receptor Binding Assay, Chang et al. modification (FBA TEST No. 2); settings: read-out: IC50 in FBA test (inhibition of specific binding of 3H-Flunitrazepam)
Procedure: Substantially similar results are obtainable in a Flunitrazepam Receptor Binding Assay (FBA) as described by Chang et. al., Eur. J. Pharmacol., 48, 213 (1978): when carried out with the non-substantive modifications evident from the following description (hereinafter FBA TEST No. (2): Fresh calf brain cortex is homogenized in a 19 fold volume of Tris-HCl buffer pH 7.4, using a Brinkman Polytron PT 20 and centrifuged at 50'000 g for 10 min. The pellets are frozen at -20° C. and resuspended in a 400 fold volume of Tris-buffer pH 7.4 before use for the binding assay. The assay mixtures consist of 1.8 ml of homogenate (corresponding to 4.5 mg of original tissue), 0.1 ml [^3 H]-Flunitrazepam (final concentration 1.5 nM), and 0.1 ml of buffer for determination of total binding or 0.1 ml of unlabelled Flunitrazepam (final concentration 1 μM) for determination of nonspecific binding, respectively. To assess the potency of various drugs in inhibiting specific binding, drugs are added (instead of buffer) to give 5 to 9 different concentrations between 1 nM and 10 μM, each in duplicate. After incubation for 15 min at 0° C., the assay mixtures are rapidly filtered through Whatman GF/B filters and washed twice with 5 ml of ice cold Tris-buffer. The filters are counted in Rialuma on a LKB Rach-Beta Liquid Scintillation Counter. […]

rats [2] = assay: Geller Conflict test (conflict segment); assay type: in vivo; settings: Rattus norvegicus; for minimal effective dose: conflict segment (number of lickings), read-out: minimum effective dosage in conflict test
Procedure: Speth et al., Life Science, 22: 859 (1978). Routine and non-substantive modifications of the Flunitrazepam Receptor Binding Assay that are evident from the following description are employed in such evaluation in which non-radioactive candidate compounds are tested for their ability to displace ^3 H-flunitrazepam binding from isolated calf brain benzodiazepine receptors. […] This suspension is made homogenous by homogenation with a Brinkmann Polytron using a rheostate setting of 8 for 10 seconds. Ten λ of ^3 H-flunitrazepam solution is diluted in 0.05M Tris buffer (pH 7.1 at 37° C.) to give a concentration of 10 nM (3.13×10^-6 mg/ml). This solution is stored frozen at -20° C., while the stock ^3 H-flunitrazepam solution in ethanol is kept refrigerated at +2° C. Periodically, the stock ethanolic ^3 H-flunitrazepam solution is examined by TLC for chemical purity. If the purity becomes <90%, the stock solution is repurified or new high purity ^3 H-flunitrazepam is obtained and the impure ^3 H-flunitrazepam discarded. A 0.1 ml portion of 10 nM ^3 H-flunitrazepam "working" solution is added to 12×75 mm borosilicate disposable test tube along with 0.1 ml of freshly prepared 10% ethanol solution. This is the control tube for measuring total binding. Non-specific binding is determined by the addition of 2×10^-5 diazepam (in 10% ethanol) to other tubes in the place of 0.1 ml 10% ethanol. The specific binding is determined in the final results by subtraction of the non-specific binding from the total binding. […] Three mg of each compound are placed in 18×150 mm borosilicate disposable test tubes. […] The ^3 H-flunitrazepam trapped on the filters is counted by liquid scintillation counting on a Beckman LS 8000 after the filters are rapidly shaken for 45 minutes in the scintillation vials with 10 ml of scintillation cocktail. Results of compounds screened are calculated by the on-line data reduction system in the Beckman LS 8000, and are expressed as a percent specifically bound compared to control. […]

[3] = tested on: monkeys, rats, cats, mice; assay: Other standard CNS depressant tests (sleep studies, spinal reflex test, chemically induced convulsions test, Dunham rotarod test, variable interval segment of Geller Conflict test); assay type: in vivo; settings: at the doses useful as minor tranquilizers, sleep studies in monkeys and rats
[4] = Rotarod, Locomotion and Rearing Tests (indicative of sedation); assay type: in vivo; settings: rat, locomotion, rearing tests, rats, one value stated for the three tests
Source text: (§1) While the racemates and individual optical isomers were indicated to have about the same level of activity in FBA tests specifically indicating tranquilizing activity, a marked difference was found between R-and S optical isomers in vivo in tests indicative of sedation. […] On the other hand, in the case of the S-isomer, the doses producing sedation effects were indicated to substantially overlap those at which tranquilizing activity was indicated. For example, in vivo tests in rats. The S-isomer of Example 9 hereinafter was indicated to have tranquilizing (anxiolytic) action in the dose range of about 2 to 15 milligrams per kilograms and mild sedation-related effects in the dose range of about 3-50 milligrams per kilogram. […] In evaluation of the optical isomers in rats to obtain the above indications, the Discrimination Test and the conflict segment (number of lickings) of Geller Conflict Test were used to evaluate tranquilizing activity. […] In the conflict test, the R-isomer was indicated to have a minimum effective dosage of 30 mg/kg. and the S-isomer a minimum effective dosage of 10 mg/kg. […] On the other hand, the S-isomer was indicated to have an ED50 between 40-50 mg/kg. in the Rotarod, Locomotion and Rearing Tests and a low minimum effective dose of 3 mg/kg. in the Sleep Studies.

rats [5] = assay: Sleep studies (sleep/wakefulness studies); assay type: in vivo; settings: indicative of sedation
Source text: as §1

rats [6] = assay: Discrimination Test; assay type: in vivo; settings: Rattus norvegicus, tranquilizing activity
Source text: as §1

rats [7] = assay: In vivo tests in rats: dose ranges of tranquilizing action and sedation-related effects; settings: about; for dose range of sedation-related effects: mild (S-isomer) or weak-to-mild (R-isomer) effects
Source text: as §1

Compound | IC50 [1] [nM] | ED50 (rats [2]; po, P.O.) [mg/kg] | activity in other standard CNS depressant tests [3] | ED50 [4] [mg/kg] | minimal effective dose (rats [2]) [mg/kg] | minimum effective dose in sleep studies (sleep/wakefulness studies) (rats [5]) [mg/kg] | ED50 (rats [6]) [mg/kg] | dose range of tranquilizing (anxiolytic) action (rats [7]) | dose range of sedation-related effects (rats [7])
O=c1c2cc(C(F)(F)F)ccc2nc2n1CC1CCCCN21 (stereo not drawn) [Example 1, Trans(e,e)-( )-2-trifluoromethyl-7,8,9,10,10a,11-Hexahydro-13H-pyrido[1',2':3,4]-imidazo[2,1-b]-quinazolin-13-one] | 6.5 | 15 | only mildly active or essentially inactive |  |  |  |  |  | 
O=c1c2cc(C(F)(F)F)ccc2nc2n1C[C@H]1CCCCN21 [Example 5, (-)-10aR-7,8,9,10,10a,11-hexahydro-2-trifluoromethyl-13H-pyrido[1,'2':3,4]imidazo[2,1b]quinazolin-13-one] |  |  |  | > 120 | 30 | 60 | 4.2 | 4-40 milligrams per kilogram | 60-120 milligrams per kilogram
O=c1c2cc(C(F)(F)F)ccc2nc2n1C[C@@H]1CCCCN21 [Example 8, (+)-10aS-7,8,9,10,10a,11-Hexahydro-2-trifluoromethyl-13H-pyrido[1,'2':3,4]imidazo[2,1b]quinazolin-13-one] |  |  |  | 40 to 50 | 10 | 3 | 2.6 |  | 3-50 milligrams per kilogram
